Assay results from US20060270631A1, “Methods for the treatment and prevention of angiogenic diseases” (priority 2005, published 2006).
Values joined by “and” are separate entries in the source; they are usually repeats but may differ in a detail not shown here. Identical values can stand only once.

What was measured:
sphingosine kinase (SK) = assay: Screening assay for inhibitors of SK; type: biochemical, human; conditions: library screen
From the text: An assay for screening for inhibitors of SK has been established (French et al., Cancer Res 63: 5962 (2003)). […] Representative active compounds from four chemotypes of SK inhibitors, designated herein as Compounds I-IV, are shown in FIG. 1.

Pharmacokinetics in mice = type: in vivo, mouse; conditions: for AUC(0-inf) / Cmax / Tmax / half-life: female, Swiss-Webster, mouse, whole blood, mice
Method: Mice were anesthetized and blood was removed by cardiac puncture at time points ranging from 1 minute to 8 hours. […] Control blood samples were spiked with known amounts of internal standard and analyte to identify compound-specific peaks and to develop standard curves for quantification. Pharmacokinetic parameters were calculated using the WINNONLIN analysis software package (Pharsight).

[1] = system: VEGF-induced vascular permeability; assay: VEGF-induced vascular leakage (Miles assay) in nude mice; type: in vivo, mouse; conditions: FIG. 7B
[2] = system: diabetic Sprague-Dawley rats; assay: Retinal vascular permeability in streptozotocin-diabetic rats; type: in vivo, rat; conditions: 25 or 75 mg/kg IP, 5 days per week, Day 45 to Day 87; inner plexiform and outer nuclear layers
Method: FIG. 9. Effects of ABC 294640 on retinal vascular permeability in diabetic rats. From Day 45 through Day 87, Control (open bars) and Diabetic rats were treated with solvent (shaded bars) or ABC294640 at 25 mg/kg (horizontal-hatched bars) or 75 mg/kg (cross-hatched bars). On Day 87, retinal leakage in each animal was measured. Values represent the mean±sd for 3-5 rats per group.
Male Sprague-Dawley rats weighing 150-175 g were used. Diabetes was produced by intraperitoneal injection of streptozotocin (65 mg/kg in citrate buffer) after overnight fasting. Sham-injected non-diabetic animals were also carried as controls. Blood glucose was measured three days post-injection and animals with blood glucose over 250 mg/dL were used as diabetic rats for the study. Blood glucose levels and body weights were monitored weekly throughout the study. On Day 45, retinal vascular permeability was measured in a group of control and diabetic rats (Antonetti et al., Diabetes 47: 1953 (1998), Barber et al., Invest Ophthalmol Vis Sci 46: 2210 (2005)). […] Sections were dewaxed and viewed with an Olympus OM-2 fluorescence microscope fitted with a Sony CLD video camera. Fluorescence intensities of digital images were measured using Leica Confocal Software (Version 2.61, build 1538, LCS Lite, 2004). […]

female DBA/1 mice = assay: Collagen-Induced Arthritis (CIA) model in mice; type: in vivo, mouse; conditions: 100 mg/kg orally, Day 12
male Lewis rats = assay: Adjuvant-Induced Arthritis model in rats; type: in vivo, rat; conditions: Day 10
Method: FIG. 11. Effects of ABC294640 on disease progression in the adjuvant-induced arthritis model in rats. Male Lewis rats were injected subcutaneously with Mycobacterium butyricum, and symptoms of immune reactivity were present after 2 weeks. Responsive rats were randomized into treatment groups (n=8 per group), and received oral daily doses of: solvent alone (0.375% Tween-80); 100 mg/kg ABC294640; 35 mg/kg ABC294640; or 5 mg/kg ABC294640, or intraperitoneal injections of indomethacin (5 mg/kg) every other day. The severity of disease in each animal was quantified by measurement of the hind paw thickness. Panel A. Time course of hind paw arthritic response. Panel B. Final day (Day 10) hind paw thickness measurements. Panel C. Change in paw thickness of respective group versus non-arthritic rats (naive) at Day 10. *,p<0.05; ***, p<0.001 versus solvent alone group.
Adjuvant-induced arthritis is another widely used assay that recapitulates many features of human rheumatoid arthritis, and so is useful in the evaluation of new drug candidates. Age- and weight-matched male Lewis rats (150-170 g) were injected subcutaneously in the tail with 1 mg of Mycobacterium butyricum (Difco, killed dried) suspended in 0.1 ml of light mineral oil. Symptoms of immune reactivity were present after 2 weeks. Responsive rats were randomized into treatment groups, and received oral daily doses (1 ml) of: solvent alone (0.375% Tween-80); 100 mg/kg ABC294640; 35 mg/kg ABC294640; or 5 mg/kg ABC294640, or intraperitoneal injections of indomethacin (5 mg/kg) every other day as a positive control. The severity of disease in each animal was quantified by measurement of the hind paw thickness. As above, a reduction of 30% or greater was considered to be an indication of anti-inflammatory activity in this model.

[3] = system: JC murine mammary adenocarcinoma; assay: JC mammary adenocarcinoma syngenic tumor model in Balb/C mice
Method: FIG. 12. […] Balb/c female mice were injected subcutaneously with JC cells suspended in PBS. […] Whole body weight and tumor volume measurement were performed for up to 18 days. *p<0.05. Inset: Averaged body weights of mice from each group during course of study.
FIG. 13. […] Balb/c female mice were injected s.c. with JC cells suspended in PBS.
We determined the antitumor activity of representative SK inhibitors in a syngenic mouse tumor model that uses a transformed murine mammary adenocarcinoma cell line (JC, ATCC Number CRL-2116) and Balb/C mice (Charles River) (Lee et al., Oncol Res 14: 49 (2003)). Animals were housed under 12 hour light/dark cycles, with food and water provided ad libitum. Tumor cells (1×10^6) were implanted subcutaneously, and tumor volume was calculated using the equation: (L×W^2)/2. Upon detection of tumors, mice were randomized into treatment groups.

[4] = system: female Swiss-Webster mice; conditions: mouse, in vivo
Method: (§1) The compounds are soluble to at least 15 mg/ml in 50% dimethylsulfoxide:50% phosphate-buffered saline (DMSO:PBS) for intraperitoneal (IP) administration or Polyethylene glycol-400 (PEG400) for oral dosing.

physchem = conditions: aqueous with cosolvent or surfactant or cyclodextrin
Method: as §1

endogenous SK = assay: Cellular SK activity in bovine retinal endothelial cells; type: cell-based; conditions: 4 hours
Method: FIG. 3. Inhibition of cellular SK activity in RECs. Bovine retinal endothelial cells were incubated with 20 μM dimethylsphingosine (DMS) or 25 μg/mL Compound I, Compound II or Compound V (approximately 80 μM for each compound) for 4 hours before the addition of 0.4 μCi of [^3H]sphingosine. After 15 minutes, cells were lysed and extracted with chloroform: methanol. The total amounts of [^3H]sphingosine in the organic phase and [^3H]S1P in the aqueous phase were then determined. Values represent the mean±SD of duplicate samples in a typical experiment.
Cellular S1P formation assay. Cells were grown to confluency in 24-well tissue culture plates and serum-starved for 24 hours as described above. Cells were then treated with 1% DMSO (as the drug vehicle), 20 μM dimethylsphingosine, or the indicated concentration of an SK inhibitor for 4 hours. The cells were then incubated with [^3H]sphingosine for 15 minutes, and the formation of [^3H]S1P was measured as previously described (French et al., Cancer Res 63: 5962 (2003)). In some assays, the cells were serum-starved for 24 hours and then treated with VEGF (50 ng/mL) alone or in the presence of an SK inhibitor for an additional 12 hours. [^3 H]Sphingosine was then added for 15 minutes, and its conversion to [^3H]S1P was measured as indicated above.
A cell-based assay in which the phosphorylation of exogenously added [^3H]sphingosine to [^3H]S1P by endogenous SK can be quantified (French et al., Cancer Res 63: 5962 (2003)) was used to evaluate the effects of test compounds on the activity of SK in intact cells. In this assay, cells are incubated with [^3 H]sphingosine for an appropriate period of time, and then [^3H]sphingosine and [^3H]S1P (formed by endogenous SK activity) are separated by extraction and levels of both species are determined by scintillation counting. We have used a number of cell lines in this assay to confirm that the SK inhibitors are active in multiple intact cell systems. For example, human umbilical vein endothelial cells (HUVECs) are commonly used as a model of human vasculature. […] Similarly, the enzymatic activity of SK in bovine RECs, and its sensitivity to SK inhibitors were assessed. […] Each of inhibitors of SK (Compound I, Compound II and Compound V) was also active against the endogenous SK activity in the bovine RECs.

O=C(NCc1ccncc1)C12CC3CC(C1)CC(c1ccc(Cl)cc1)(C3)C2 [ABC294640]
inhibition of SK (sphingosine kinase (SK)): inhibit SK | blood levels versus IC50 for inhibition of SK activity (Pharmacokinetics in mice; during the entire study (up to 8 hours)): exceeded the IC50 | AUC(0-inf) (Pharmacokinetics in mice; IV 50 mg/kg): 56900 ng·h/mL and 137 µM·h | Cmax (Pharmacokinetics in mice; IV 50 mg/kg): 31100 ng/mL and 74 µM | Tmax (Pharmacokinetics in mice; IV 50 mg/kg): 0 h | half-life (Pharmacokinetics in mice; IV 50 mg/kg): 1.4 h | AUC(0-inf) (Pharmacokinetics in mice; Oral 50 mg/kg): 37500 ng·h/mL and 90.1 µM·h | Cmax (Pharmacokinetics in mice; Oral 50 mg/kg): 8000 ng/mL and 19 µM | Tmax (Pharmacokinetics in mice; Oral 50 mg/kg): 0.25 h | half-life (Pharmacokinetics in mice; Oral 50 mg/kg): 4.5 h | VEGF-promoted dye leakage into mouse skin ([1]; 75 mg/kg intraperitoneal): suppressed | VEGF-promoted dye leakage into mouse skin ([1]; 100 mg/kg oral gavage): suppressed | FITC-BSA leakage into the retina versus untreated diabetic rats [2]: substantially reduced | reduction in clinical score versus vehicle (female DBA/1 mice; 6 days per week): 67% | reduction in the increase in hind paw thickness versus vehicle (female DBA/1 mice; 6 days per week): 90% | histologic damage of tibiotarsal joints (female DBA/1 mice): significantly reduced | reduction in the arthritic response (hind paw thickness) (male Lewis rats; 5 mg/kg oral daily): 13% | reduction in the arthritic response (hind paw thickness) (male Lewis rats; 35 mg/kg oral daily): 42% | reduction in the arthritic response (hind paw thickness) (male Lewis rats; 100 mg/kg oral daily): 76% | inhibition of tumor growth ([3]; 100 mg/kg orally on odd days, PEG400): 69% | therapeutic index (nontoxic dose/antitumor activity) ([3]; female, Balb/c, mouse, in vivo): greater than 30 | toxicity to the tumor-bearing mice ([3]; mouse, in vivo): without toxicity | EC50 for inhibition of tumor growth ([3]; oral, odd days, dose-response, FIG. 13): approximately 35 mg/kg | nontoxic dose [4]: 1000 mg/kg | dose with no immediate or delayed toxicity, acute ([4]; ip): at least 50 mg/kg | dose without noticeable toxicity ([4]; po): at least 100 mg/kg | solubility (physchem): ≥ 15 mg/mL

O=C(NN=Cc1c(O)ccc2ccccc12)c1cc(-c2ccc3ccccc3c2)n[nH]1 [Compound I]
endogenous SK activity in bovine RECs (endogenous SK; 25 μg/mL (approximately 80 μM)): active

O=C1C(=Cc2ccc(O)c(O)c2)Oc2ccccc21 [Compound V]
endogenous SK activity in bovine RECs (endogenous SK; 25 μg/mL (approximately 80 μM)): active

CCCCCCCCCCCCC/C=C/[C@@H](O)[C@H](CO)N(C)C [DMS, dimethylsphingosine, reference compound]
endogenous SK activity in bovine RECs (endogenous SK; 20 μM, positive control): inhibition of SK
